Legend:
[1] = Antiproliferative activity against mouse MC3T3-E1 cells; assay type: toxicity, cell-based
A549 [2] = test: Antiproliferative activity against human A549 cells; assay type: functional, cell-based
A549 [3] = test: Antiproliferative activity against human A549 cells measured after 48 hrs by MTT assay; assay type: functional, cell-based; settings: A549, 48 h
HCT-116 [4] = test: Antiproliferative activity against human HCT-116 cells measured after 48 hrs by MTT assay; assay type: functional, cell-based; settings: HCT-116, 48 h
MDA-MB-231 [5] = test: Antiproliferative activity against human MDA-MB-231 cells measured after 48 hrs by MTT assay; assay type: functional, cell-based; settings: MDA-MB-231, 48 h
A549 [6] = test: Antiproliferative activity against human A549 cells measured after 48 hrs; assay type: functional, cell-based; settings: A549, 48 h
HCT-116 [7] = test: Antiproliferative activity against human HCT-116 cells measured after 48 hrs; assay type: functional, cell-based; settings: HCT-116, 48 h
MDA-MB-231 [8] = test: Antiproliferative activity against human MDA-MB-231 cells measured after 48 hrs; assay type: functional, cell-based; settings: MDA-MB-231, 48 h
MCF7 = test: Antiproliferative activity against human MCF7 cells assessed as inhibition of cell growth; assay type: functional, cell-based
A549 [9] = test: Antiproliferative activity against human A549 cells assessed as inhibition of cell growth; assay type: functional, cell-based
HeLa = test: Antiproliferative activity against human HeLa cells assessed as inhibition of cell growth; assay type: functional, cell-based
HT-29 = test: Antiproliferative activity against human HT-29 cells; assay type: functional, cell-based
PANC-1 = test: Antiproliferative activity against human PANC-1 cells; assay type: functional, cell-based
MDA-MB-231 [10] = test: Antiproliferative activity against human MDA-MB-231 cells; assay type: functional, cell-based
[11] = Cytotoxicity activity against human HDF cells; assay type: toxicity, cell-based; settings: HDF cells (NHDF)

Work on `O=C1c2ccccc2-n2c1nc1cc(Cl)ccc1c2=O` yielded an IC50 [1] of over 100 µM and an IC50 (A549 [2]) of over 100 µM.
`CCN(CC)c1cccc2c1C(=O)c1nc3ccccc3c(=O)n1-2` gave an IC50 (A549 [3]) of over 100 µM, an IC50 (HCT-116 [4]) of 1.62 µM and an IC50 (MDA-MB-231 [5]) of 48.3 µM.
With `O=C1c2c(N3CCCCC3)cccc2-n2c1nc1ccccc1c2=O` the IC50 (A549 [3]) was over 100 µM, the IC50 (HCT-116 [4]) was over 100 µM and the IC50 (MDA-MB-231 [5]) was over 100 µM. The IC50 (A549 [6]) was over 100 µM, the IC50 (HCT-116 [7]) was over 100 µM and the IC50 (MDA-MB-231 [8]) was over 100 µM.
With `CN1CCN(c2cccc3c2C(=O)c2nc4ccccc4c(=O)n2-3)CC1` the IC50 (A549 [3]) was over 100 µM, the IC50 (HCT-116 [4]) was 45.6 µM and the IC50 (MDA-MB-231 [5]) was over 100 µM.
With `O=C1c2c(N3CCOCC3)cccc2-n2c1nc1ccccc1c2=O` the IC50 (A549 [3]) was 13.7 µM, the IC50 (HCT-116 [4]) was 90 µM and the IC50 (MDA-MB-231 [5]) was 56.1 µM. The IC50 (A549 [6]) was over 100 µM, the IC50 (HCT-116 [7]) was 1.62 µM and the IC50 (MDA-MB-231 [8]) was 48.3 µM.
With `O=C1C2C=CC=CC2=NC2/C(=N\Nc3nc(-c4ccc(O)cc4)cs3)c3ccccc3N12` (stereo not drawn) the IC50 (MCF7) was 31.6 µM, the IC50 (A549 [9]) was 28.8 µM and the IC50 (HeLa) was 7.22 µM.
`O=C1c2ccccc2-n2c1nc1ccc(F)c(Cl)c1c2=O` showed an IC50 [1] of over 100 µM and an IC50 (A549 [2]) of over 100 µM.
For `Cc1nn(Cl)c2c1[C@@]1(C(C#N)=C(N)O2)c2ccccc2-n2c1nc1ccccc1c2=O`, the IC50 (HT-29) was 77.4 µM, the IC50 (PANC-1) was 49.4 µM and the IC50 (MDA-MB-231 [10]) was 47.9 µM. For the same molecule, the IC50 [11] was over 100 µM.
Molecule `COc1ccc(-c2cs/c(=N/N=C3/c4ccccc4-n4c3nc3ccccc3c4=O)n2-c2ccccc2)cc1` has an IC50 (MCF7) of 52.3 µM, an IC50 (A549 [9]) of 63 µM and an IC50 (HeLa) of 40.2 µM.
Work on `O=C1c2c(N3CCN(c4ccccn4)CC3)cccc2-n2c1nc1ccccc1c2=O` yielded an IC50 (A549 [3]) of over 100 µM, an IC50 (HCT-116 [4]) of over 100 µM and an IC50 (MDA-MB-231 [5]) of over 100 µM. It also gave an IC50 (A549 [6]) of over 100 µM, an IC50 (HCT-116 [7]) of over 100 µM and an IC50 (MDA-MB-231 [8]) of over 100 µM.
`O=C1c2c(ccc(F)c2N2CCN(C(=O)c3ccco3)CC2)-n2c1nc1ccccc1c2=O` gave an IC50 (A549 [3]) of over 100 µM, an IC50 (HCT-116 [4]) of over 100 µM and an IC50 (MDA-MB-231 [5]) of over 100 µM. It also gave an IC50 (A549 [6]) of over 100 µM, an IC50 (HCT-116 [7]) of over 100 µM and an IC50 (MDA-MB-231 [8]) of over 100 µM.
For `Cc1n[nH]c2c1[C@@]1(C(C#N)=C(N)O2)c2ccccc2-n2c1nc1ccccc1c2=O`, the IC50 (HT-29) was 90.4 µM, the IC50 (PANC-1) was 21.4 µM and the IC50 (MDA-MB-231 [10]) was 60.8 µM. It also gave an IC50 [11] of over 100 µM.
For `O=C1c2c(ccc(Cl)c2N2CCN(c3ccccn3)CC2)-n2c1nc1ccccc1c2=O`, the IC50 (A549 [3]) was over 100 µM, the IC50 (HCT-116 [4]) was over 100 µM and the IC50 (MDA-MB-231 [5]) was over 100 µM.
With `CN(C)c1c(F)ccc2c1C(=O)c1nc3ccccc3c(=O)n1-2` the IC50 (A549 [3]) was over 100 µM, the IC50 (HCT-116 [4]) was over 100 µM and the IC50 (MDA-MB-231 [5]) was 89.7 µM.
`O=C1c2ccccc2-n2c1nc1ccc(Cl)c(Cl)c1c2=O` showed an IC50 [1] of over 100 µM and an IC50 (A549 [2]) of over 100 µM.
In the case of `CN(C)c1cccc2c1C(=O)c1nc3ccccc3c(=O)n1-2`, the IC50 (A549 [6]) is reported as over 100 µM, the IC50 (HCT-116 [7]) is reported as over 100 µM and the IC50 (MDA-MB-231 [8]) is reported as over 100 µM.
For `CN(C)c1c(Cl)ccc2c1C(=O)c1nc3ccccc3c(=O)n1-2`, the IC50 (A549 [3]) was 18.6 µM, the IC50 (HCT-116 [4]) was 25.7 µM and the IC50 (MDA-MB-231 [5]) was 14.7 µM.
For `O=C1c2c(ccc(Cl)c2N2CCN(CCO)CC2)-n2c1nc1ccccc1c2=O`, the IC50 (A549 [3]) was 22.8 µM, the IC50 (HCT-116 [4]) was over 100 µM and the IC50 (MDA-MB-231 [5]) was 32.8 µM.
In the case of `COc1ccc(-c2csc(N/N=C3/c4ccccc4N4C(=O)C5C=CC=CC5=NC34)n2)cc1` (stereo not drawn), the IC50 (MCF7) is reported as 45.9 µM, the IC50 (A549 [9]) is reported as 52 µM and the IC50 (HeLa) is reported as 65.5 µM.
Molecule `O=C1c2c(ccc(F)c2Cl)-n2c1nc1cc(Cl)ccc1c2=O` has an IC50 [1] of 82 µM and an IC50 (A549 [2]) of 1.03 µM.
In the case of `O=C1c2c(N3CCN(CCO)CC3)cccc2-n2c1nc1ccccc1c2=O`, the IC50 (A549 [3]) is reported as over 100 µM, the IC50 (HCT-116 [4]) is reported as over 100 µM and the IC50 (MDA-MB-231 [5]) is reported as 34.2 µM.
For `CN1CCN(c2c(Cl)ccc3c2C(=O)c2nc4ccccc4c(=O)n2-3)CC1`, the IC50 (A549 [3]) was over 100 µM, the IC50 (HCT-116 [4]) was over 100 µM and the IC50 (MDA-MB-231 [5]) was over 100 µM.
Molecule `N#Cc1ccc(-c2cs/c(=N/N=C3/c4ccccc4-n4c3nc3ccccc3c4=O)n2-c2ccccc2)cc1` has an IC50 (MCF7) of 44.4 µM, an IC50 (A549 [9]) of 28.8 µM and an IC50 (HeLa) of 43.8 µM.
Molecule `O=c1c2ccccc2nc2n1-c1ccccc1/C2=N/N=c1/scc(-c2ccc(Cl)cc2)n1-c1ccccc1` has an IC50 (MCF7) of 46.1 µM, an IC50 (A549 [9]) of 65.5 µM and an IC50 (HeLa) of 75.2 µM.
Work on `CCN(CC)c1c(F)ccc2c1C(=O)c1nc3ccccc3c(=O)n1-2` yielded an IC50 (A549 [3]) of 1.2 µM, an IC50 (HCT-116 [4]) of 2.01 µM and an IC50 (MDA-MB-231 [5]) of 0.8 µM.
`Cc1ccc2c(c1N1CCN(c3ccccn3)CC1)C(=O)c1nc3ccccc3c(=O)n1-2` showed an IC50 (A549 [3]) of over 100 µM, an IC50 (HCT-116 [4]) of over 100 µM and an IC50 (MDA-MB-231 [5]) of over 100 µM.
Work on `O=C1c2cc(Cl)c(N3CCCCC3)cc2-n2c1nc1ccccc1c2=O` yielded an IC50 (A549 [6]) of over 100 µM, an IC50 (HCT-116 [7]) of over 100 µM and an IC50 (MDA-MB-231 [8]) of over 100 µM.
With `O=c1c2ccccc2nc2n1-c1ccccc1/C2=N/N=c1/scc(-c2ccc(Br)cc2)n1-c1ccccc1` the IC50 (MCF7) was 31.6 µM, the IC50 (A549 [9]) was 64.9 µM and the IC50 (HeLa) was 55.5 µM.
Molecule `Cc1ccc2c(c1N1CCNCC1)C(=O)c1nc3ccccc3c(=O)n1-2` has an IC50 (A549 [3]) of over 100 µM, an IC50 (HCT-116 [4]) of 67.2 µM and an IC50 (MDA-MB-231 [5]) of 69.8 µM.
`Cc1ccc2c(c1N1CCOCC1)C(=O)c1nc3ccccc3c(=O)n1-2` gave an IC50 (A549 [3]) of over 100 µM, an IC50 (HCT-116 [4]) of over 100 µM and an IC50 (MDA-MB-231 [5]) of 58.7 µM.
`Cc1ccc2c(c1N1CCN(CCO)CC1)C(=O)c1nc3ccccc3c(=O)n1-2` gave an IC50 (A549 [3]) of over 100 µM, an IC50 (HCT-116 [4]) of over 100 µM and an IC50 (MDA-MB-231 [5]) of over 100 µM.
